Results published in PMC6842527, “Molecular cloning and metabolomic characterization of the 5-enolpyruvylshikimate-3-phosphate synthase gene from Baphicacanthus cusia” (BMC Plant Biology, 2019).

Target: T1, BcEPSPS (5-enolpyruvylshikimate-3-phosphate synthase)
T1 construct: gene EPSPS; full-length coding region (518 aa) in pET-32a, His-tagged fusion BcEPSPS-His, expressed in E. coli BL21
Assay: malachite green phosphate-release enzyme assay with purified recombinant BcEPSPS; Ki at […] S3P (IC50 […] also reported)
Format: biochemical, Baphicacanthus cusia

## O=C(O)CNCP(=O)(O)O [glyphosate]
  Ki: 46 nM
